Results taken from ChEMBL document CHEMBL1201862, “PubChem BioAssay data set” (2004).
Calls of active or inactive are those of the source.

Tests used:
Beta-lactamase [1] = biological target: Beta-lactamase (Salmonella choleraesuis (strain SC-B67), UniProt Q5J463); test: Epi-absorbance-based counterscreen for selective VIM-2 inhibitors: dose response biochemical high throughput screening assay to identify inhibitors of TEM-1 serine-beta-lactamase.
Beta-lactamase [2] = biological target: T1, Beta-lactamase (Pseudomonas aeruginosa, UniProt Q79MP6); test: IMP-1 metallo-beta-lactamase inhibitors, dose response, selectivity assay for VIM-2 inhibitor project, biochemical, epi-absorbance (AID 1920)
T1 sequence (Q79MP6 whole entry): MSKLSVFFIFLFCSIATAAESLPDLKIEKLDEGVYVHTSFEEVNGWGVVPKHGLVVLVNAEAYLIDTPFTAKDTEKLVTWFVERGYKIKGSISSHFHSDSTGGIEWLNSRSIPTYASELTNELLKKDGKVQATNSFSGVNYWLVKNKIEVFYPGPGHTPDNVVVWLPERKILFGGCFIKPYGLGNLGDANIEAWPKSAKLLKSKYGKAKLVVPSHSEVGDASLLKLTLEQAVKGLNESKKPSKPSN

Beta-lactamase [3] = biological target: T1, Beta-lactamase; test: […] counterscreen for selective VIM-2 inhibitors: dose response biochemical high throughput screening assay to identify inhibitors of IMP-1 metallo-beta-lactamase.
Beta-galactosidase = Beta-galactosidase (Escherichia coli, UniProt Q8VNN2); test: Dose response counterscreen for EBI2 assay utilizing the enzyme, b-galactosidase.; type: functional
Sequence of Beta-galactosidase (Q8VNN2 whole entry): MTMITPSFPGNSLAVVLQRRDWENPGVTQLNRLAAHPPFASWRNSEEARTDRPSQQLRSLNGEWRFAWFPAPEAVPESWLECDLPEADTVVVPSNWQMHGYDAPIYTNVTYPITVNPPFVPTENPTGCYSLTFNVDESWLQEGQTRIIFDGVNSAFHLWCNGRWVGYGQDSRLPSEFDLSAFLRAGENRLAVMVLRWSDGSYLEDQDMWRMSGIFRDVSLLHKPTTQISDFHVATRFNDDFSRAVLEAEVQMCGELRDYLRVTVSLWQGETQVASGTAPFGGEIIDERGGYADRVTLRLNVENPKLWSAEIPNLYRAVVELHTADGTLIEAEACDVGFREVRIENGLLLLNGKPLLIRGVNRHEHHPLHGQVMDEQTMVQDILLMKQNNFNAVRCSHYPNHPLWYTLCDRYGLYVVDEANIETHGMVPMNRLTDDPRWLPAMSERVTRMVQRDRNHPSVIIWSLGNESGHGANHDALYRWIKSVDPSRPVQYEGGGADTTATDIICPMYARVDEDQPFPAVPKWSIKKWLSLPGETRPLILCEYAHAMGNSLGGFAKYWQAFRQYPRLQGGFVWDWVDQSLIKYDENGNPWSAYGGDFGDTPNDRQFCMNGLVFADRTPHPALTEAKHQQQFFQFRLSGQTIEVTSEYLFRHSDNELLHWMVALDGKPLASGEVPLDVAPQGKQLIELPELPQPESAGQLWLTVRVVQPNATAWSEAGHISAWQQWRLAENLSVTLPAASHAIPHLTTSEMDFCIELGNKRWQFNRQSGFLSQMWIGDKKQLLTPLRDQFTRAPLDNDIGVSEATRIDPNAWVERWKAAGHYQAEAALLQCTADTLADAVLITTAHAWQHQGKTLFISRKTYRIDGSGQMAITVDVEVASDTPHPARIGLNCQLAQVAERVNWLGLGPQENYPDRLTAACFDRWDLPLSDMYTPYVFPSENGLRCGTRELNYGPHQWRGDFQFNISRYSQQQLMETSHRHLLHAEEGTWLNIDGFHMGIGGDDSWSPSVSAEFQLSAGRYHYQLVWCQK

INS1 = test: beta cell apoptosis inhibitors, cytokine rescue, dose response, luminescence, retest (AID 449756); type: functional, cell-based; settings: Rattus norvegicus;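 note: cell death triggered by IL-1 beta plus TNF-alpha plus IFN-gamma mixture; protective hits raise ATP signal compared with cytokine alone wells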
[4] = biological target: 5-hydroxytryptamine receptor 2A (Mus musculus, UniProt P35363); type: functional, cell-based;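 note: CHO-K1 cells with tagged receptor and beta-arrestin; agonist potency measured as compound-induced activation of the receptor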
Sequence of 5-hydroxytryptamine receptor 2A (P35363 whole entry): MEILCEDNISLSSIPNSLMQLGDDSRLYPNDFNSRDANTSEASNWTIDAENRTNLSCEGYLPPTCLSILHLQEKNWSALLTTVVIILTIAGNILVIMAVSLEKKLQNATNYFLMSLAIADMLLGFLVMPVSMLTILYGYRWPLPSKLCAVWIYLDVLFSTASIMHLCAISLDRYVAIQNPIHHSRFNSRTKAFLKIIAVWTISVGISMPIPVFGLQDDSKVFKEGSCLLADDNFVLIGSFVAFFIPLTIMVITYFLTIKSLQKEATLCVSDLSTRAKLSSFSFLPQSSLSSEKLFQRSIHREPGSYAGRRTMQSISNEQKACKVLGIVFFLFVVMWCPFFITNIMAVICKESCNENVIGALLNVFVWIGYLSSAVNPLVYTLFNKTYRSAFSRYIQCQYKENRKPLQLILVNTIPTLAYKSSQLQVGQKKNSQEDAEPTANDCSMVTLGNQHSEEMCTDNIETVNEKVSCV

Mu-type opioid receptor = Mu-type opioid receptor (Homo sapiens, UniProt P35372); type: functional, cell-based;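 note: U2OS cells with beta-arrestin recruitment to OPRM1 by beta-gal complementation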
Sequence of Mu-type opioid receptor (P35372 whole entry, the tested form may be a part): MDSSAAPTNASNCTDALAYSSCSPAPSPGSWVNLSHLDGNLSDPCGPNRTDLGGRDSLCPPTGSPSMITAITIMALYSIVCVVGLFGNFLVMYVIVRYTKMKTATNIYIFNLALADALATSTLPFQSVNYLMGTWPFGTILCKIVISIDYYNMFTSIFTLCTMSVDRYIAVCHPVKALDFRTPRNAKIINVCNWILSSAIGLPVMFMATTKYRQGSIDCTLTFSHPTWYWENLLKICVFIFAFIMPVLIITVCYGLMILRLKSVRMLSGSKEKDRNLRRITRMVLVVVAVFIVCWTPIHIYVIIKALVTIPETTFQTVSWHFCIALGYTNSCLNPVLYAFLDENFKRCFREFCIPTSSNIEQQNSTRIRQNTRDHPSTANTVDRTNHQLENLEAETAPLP

[5] = inhibitors of HIV Env-driven cell fusion, dose response, cherry-pick (AID 652057); type: functional, cell-based
[6] = ZM109 Env clade C HIV-1 fusion inhibitors, dose response, HeLa effector, CEM target cells, luciferase, cherry-pick (AID 652058); type: functional, cell-based
[7] = inhibitors of clade B AD8 Env fusion, dose response, cell-based, cherry-pick (AID 652062); type: functional;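 note: luciferase signal from cell-cell fusion driven by HIV-1 clade B AD8 Env; potency is for inhibitors of fusion seen as a drop in luminescence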
[8] = CEM21 lymphoblast cell cytotoxicity, dose response, cytotoxicity control for viral fusion inhibitor project, CellTiter-Glo luminescence, cherry-picked (AID 652042); type: functional, cell-based;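 note: potency for signal decrease meaning cytotoxicity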
[9] = off-target signal loss in HeLa-CEM21 co-culture – HeLa F-luc CTL cells, cherry-picked, counter-screen for HIV-1 Env fusion inhibitor project, dose response (AID 652040); type: functional, cell-based;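 note: potency for signal decrease marking cytotoxic or nonspecific inhibition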
[10] = cytotoxicity toward NIH3T3 fibroblasts, dose response, counter-screen, cell-based, ATP luminescence, mouse fibroblasts (AID 2010); type: functional;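 note: cells exposed to compound for about 90 hours before reading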
[11] = inhibitors of intracellular T. cruzi replication, confirmation, NIH3T3 host cells, beta-gal luminescence (AID 2044); type: functional, cell-based;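 note: intracellular parasites grown in NIH/3T3 mouse fibroblasts as host cells; luminescent beta-galactosidase reporter signal from transgenic T. cruzi replicating inside host cells; inhibitors lower the luminescence signal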
[12] = biological target: Ras and Rab interactor 1/Tyrosine-protein kinase ABL1 (Homo sapiens, UniProt P00519+Q13671); type: functional;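 note: biochemical TR-FRET dose-response test measuring inhibition of binding between Rin1 and Abl proteins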
Sequence of Ras and Rab interactor 1/Tyrosine-protein kinase ABL1 (P00519 whole entry): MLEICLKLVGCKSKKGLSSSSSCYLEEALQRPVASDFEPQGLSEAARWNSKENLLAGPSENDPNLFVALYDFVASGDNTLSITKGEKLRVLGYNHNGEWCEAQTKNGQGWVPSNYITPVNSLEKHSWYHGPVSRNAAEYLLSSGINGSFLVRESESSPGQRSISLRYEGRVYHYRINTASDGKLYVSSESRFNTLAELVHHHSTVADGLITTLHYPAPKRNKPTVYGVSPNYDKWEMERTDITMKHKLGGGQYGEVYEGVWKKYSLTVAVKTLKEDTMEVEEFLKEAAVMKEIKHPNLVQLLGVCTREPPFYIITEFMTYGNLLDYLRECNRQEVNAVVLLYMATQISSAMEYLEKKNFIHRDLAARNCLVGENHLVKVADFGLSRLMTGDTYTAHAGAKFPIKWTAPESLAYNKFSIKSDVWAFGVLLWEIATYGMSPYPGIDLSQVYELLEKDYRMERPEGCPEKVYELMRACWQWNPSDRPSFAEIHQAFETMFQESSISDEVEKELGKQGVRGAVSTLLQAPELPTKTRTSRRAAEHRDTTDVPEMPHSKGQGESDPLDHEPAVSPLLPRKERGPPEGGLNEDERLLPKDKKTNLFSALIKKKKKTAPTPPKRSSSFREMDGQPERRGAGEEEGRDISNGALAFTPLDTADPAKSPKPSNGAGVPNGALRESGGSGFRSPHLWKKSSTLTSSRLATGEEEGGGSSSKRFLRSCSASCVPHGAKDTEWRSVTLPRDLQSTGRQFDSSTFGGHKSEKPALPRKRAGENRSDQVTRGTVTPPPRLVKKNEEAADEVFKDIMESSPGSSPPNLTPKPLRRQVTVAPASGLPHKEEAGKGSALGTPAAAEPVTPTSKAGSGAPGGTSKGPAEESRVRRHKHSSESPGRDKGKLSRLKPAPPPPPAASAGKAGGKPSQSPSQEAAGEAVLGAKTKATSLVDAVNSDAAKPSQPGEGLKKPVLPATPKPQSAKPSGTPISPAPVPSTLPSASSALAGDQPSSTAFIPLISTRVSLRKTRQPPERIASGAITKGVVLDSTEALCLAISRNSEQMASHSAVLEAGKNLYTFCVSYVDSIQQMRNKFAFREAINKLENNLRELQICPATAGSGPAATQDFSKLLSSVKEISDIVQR
Sequence of Ras and Rab interactor 1/Tyrosine-protein kinase ABL1 (Q13671 whole entry): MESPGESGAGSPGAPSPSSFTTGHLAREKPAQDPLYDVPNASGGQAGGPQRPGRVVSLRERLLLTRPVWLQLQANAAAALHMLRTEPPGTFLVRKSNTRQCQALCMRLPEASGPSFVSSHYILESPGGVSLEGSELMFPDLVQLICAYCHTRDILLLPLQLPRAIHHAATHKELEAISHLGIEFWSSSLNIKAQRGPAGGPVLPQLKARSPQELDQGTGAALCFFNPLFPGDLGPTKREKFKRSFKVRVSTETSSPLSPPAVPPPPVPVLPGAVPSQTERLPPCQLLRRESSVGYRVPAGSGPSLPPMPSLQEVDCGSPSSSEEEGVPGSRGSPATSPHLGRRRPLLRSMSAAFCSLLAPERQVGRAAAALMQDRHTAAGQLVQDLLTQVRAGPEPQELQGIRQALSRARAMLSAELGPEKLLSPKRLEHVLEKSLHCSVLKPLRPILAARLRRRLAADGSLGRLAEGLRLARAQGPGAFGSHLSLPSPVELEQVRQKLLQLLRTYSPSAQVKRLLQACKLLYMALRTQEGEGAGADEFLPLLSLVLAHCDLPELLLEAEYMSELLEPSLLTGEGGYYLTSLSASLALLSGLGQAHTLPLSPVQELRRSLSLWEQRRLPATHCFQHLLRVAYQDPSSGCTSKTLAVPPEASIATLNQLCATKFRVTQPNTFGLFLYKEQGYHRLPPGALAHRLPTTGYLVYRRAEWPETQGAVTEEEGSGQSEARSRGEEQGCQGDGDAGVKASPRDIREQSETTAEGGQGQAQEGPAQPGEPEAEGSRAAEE

Cytochrome P450 1A2 = biological target: T2, Cytochrome P450 1A2 (Homo sapiens, UniProt P05177);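 note: PubChem cytochrome P450 panel assay, CYP1A2 panel member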
T2 sequence (P05177 whole entry): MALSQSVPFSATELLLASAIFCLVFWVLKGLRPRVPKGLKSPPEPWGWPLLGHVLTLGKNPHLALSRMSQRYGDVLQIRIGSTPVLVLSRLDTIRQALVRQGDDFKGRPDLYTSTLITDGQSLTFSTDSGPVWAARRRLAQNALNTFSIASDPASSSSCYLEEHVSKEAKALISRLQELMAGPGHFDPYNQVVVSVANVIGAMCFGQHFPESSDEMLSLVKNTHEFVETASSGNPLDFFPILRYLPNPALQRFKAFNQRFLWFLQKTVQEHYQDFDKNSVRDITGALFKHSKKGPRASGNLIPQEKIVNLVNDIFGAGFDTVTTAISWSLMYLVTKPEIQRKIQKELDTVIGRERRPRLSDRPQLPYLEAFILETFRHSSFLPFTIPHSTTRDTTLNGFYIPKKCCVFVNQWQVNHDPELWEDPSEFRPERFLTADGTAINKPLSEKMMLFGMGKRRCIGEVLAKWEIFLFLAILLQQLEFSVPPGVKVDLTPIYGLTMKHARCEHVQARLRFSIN

Cytochrome P450 2C9 = Cytochrome P450 2C9 (Homo sapiens, UniProt P11712)
Sequence of Cytochrome P450 2C9 (P11712 whole entry): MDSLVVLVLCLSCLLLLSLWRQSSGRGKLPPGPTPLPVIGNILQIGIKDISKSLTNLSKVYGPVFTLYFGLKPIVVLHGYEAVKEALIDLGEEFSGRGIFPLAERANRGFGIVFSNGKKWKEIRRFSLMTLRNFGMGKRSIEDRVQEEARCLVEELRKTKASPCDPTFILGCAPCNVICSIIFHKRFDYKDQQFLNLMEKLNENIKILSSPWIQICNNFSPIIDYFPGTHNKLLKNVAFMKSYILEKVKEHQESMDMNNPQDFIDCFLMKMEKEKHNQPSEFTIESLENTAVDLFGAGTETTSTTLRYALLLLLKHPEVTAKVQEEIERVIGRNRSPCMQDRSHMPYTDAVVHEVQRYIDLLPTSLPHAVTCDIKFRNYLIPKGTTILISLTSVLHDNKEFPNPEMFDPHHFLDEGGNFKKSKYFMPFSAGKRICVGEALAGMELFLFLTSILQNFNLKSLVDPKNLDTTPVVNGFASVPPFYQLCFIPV

Sequence of Beta-lactamase (Salmonella choleraesuis (strain SC-B67), UniProt Q5J463) (Q5J463 whole entry): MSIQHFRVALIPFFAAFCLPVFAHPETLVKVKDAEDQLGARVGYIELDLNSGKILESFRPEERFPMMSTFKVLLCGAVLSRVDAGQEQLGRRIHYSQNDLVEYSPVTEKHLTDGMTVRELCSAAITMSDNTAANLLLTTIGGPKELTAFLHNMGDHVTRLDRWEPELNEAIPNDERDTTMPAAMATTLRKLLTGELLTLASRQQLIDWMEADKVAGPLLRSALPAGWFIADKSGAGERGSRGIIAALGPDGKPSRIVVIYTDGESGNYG

In the case of `O=C(CSc1nnc(NC(=O)c2cc(Br)ccc2Cl)s1)NCC1CCCO1` (stereo not drawn), the IC50 (Beta-lactamase [1]) is reported as > 59.6 µM (inactive), the IC50 (Beta-lactamase [2]) is reported as > 59.6 µM (inactive) and the IC50 (Beta-lactamase [3]) is reported as > 59.6 µM (inactive).
With `O=C(c1cc2ccccc2o1)N1CCN(S(=O)(=O)/C=C/c2ccccc2)CC1` the IC50 (Beta-galactosidase) was > 80 µM (inactive).
With `c1cnc(N2CCN(Cc3c[nH]c4ccccc34)CC2)nc1` the AC50 (INS1) was 4.57 µM (active), the EC50 [4] was 0.424 µM (active) and the EC50 (Mu-type opioid receptor) was 92.5 µM (inactive).
For `COc1ccc(C2c3c(-c4ccccc4O)n[nH]c3C(=O)N2CCc2ccc(OC)c(OC)c2)cc1` (stereo not drawn), the AC50 [5] was 1.94 µM (active), the AC50 [6] was 2.44 µM (active) and the AC50 [7] was 1.17 µM (active). The AC50 [8] was 65.5 µM (active) and the AC50 [9] was 3.07 µM (active).
For `O=C(c1ccc2ccccc2c1)N1CCN(S(=O)(=O)/C=C/c2ccccc2)CC1`, the EC50 [10] was > 30 µM (not active), the IC50 (Beta-galactosidase) was > 80 µM (inactive) and the EC50 [11] was 1.1 µM (active).
In the case of `COc1ccc2oc(C(=O)NCC(c3ccco3)N(C)C)c(C)c2c1` (stereo not drawn), the IC50 [12] is reported as 3.82 µM (active).
For `CCOC(=O)c1[nH]c(C(=O)O)c(CCC(=O)OC)c1C`, the AC50 (Cytochrome P450 1A2) was 0.251 µM (inconclusive), the IC50 (Beta-lactamase [1]) was > 59.6 µM (inactive) and the IC50 (Beta-lactamase [2]) was > 59.6 µM (inactive). For the same compound, the IC50 (Beta-lactamase [3]) was 29.4 µM (inactive) and the AC50 (Cytochrome P450 2C9) was 31.6 µM (inconclusive).
With `CCCN1CCO[C@@H]2c3cc(O)ccc3OC[C@H]21` the EC50 [4] was 0.0216 µM (active) and the EC50 (Mu-type opioid receptor) was 92.5 µM (inactive).
